Data published in paper PMC10630452, “The tumor-enriched small molecule gambogic amide suppresses glioma by targeting WDR1-dependent cytoskeleton remodeling” (Signal Transduction and Targeted Therapy, 2023).

Experiments:
WDR1 = biological target: T1, WDR1 (Homo sapiens, UniProt O75083); test: Drug affinity responsive target stability (DARTS) in T2-4 cells; type: binding; settings: T2-4 lysate, 1 h incubation, pronase 30 min
T1 construct: GA-amide protected WDR1 at different temperature gradients in the CETSA in T2-4 cells; endogenous in cells; host or cells: T2-4 patient-derived glioma cells
T1 sequence (O75083 whole entry): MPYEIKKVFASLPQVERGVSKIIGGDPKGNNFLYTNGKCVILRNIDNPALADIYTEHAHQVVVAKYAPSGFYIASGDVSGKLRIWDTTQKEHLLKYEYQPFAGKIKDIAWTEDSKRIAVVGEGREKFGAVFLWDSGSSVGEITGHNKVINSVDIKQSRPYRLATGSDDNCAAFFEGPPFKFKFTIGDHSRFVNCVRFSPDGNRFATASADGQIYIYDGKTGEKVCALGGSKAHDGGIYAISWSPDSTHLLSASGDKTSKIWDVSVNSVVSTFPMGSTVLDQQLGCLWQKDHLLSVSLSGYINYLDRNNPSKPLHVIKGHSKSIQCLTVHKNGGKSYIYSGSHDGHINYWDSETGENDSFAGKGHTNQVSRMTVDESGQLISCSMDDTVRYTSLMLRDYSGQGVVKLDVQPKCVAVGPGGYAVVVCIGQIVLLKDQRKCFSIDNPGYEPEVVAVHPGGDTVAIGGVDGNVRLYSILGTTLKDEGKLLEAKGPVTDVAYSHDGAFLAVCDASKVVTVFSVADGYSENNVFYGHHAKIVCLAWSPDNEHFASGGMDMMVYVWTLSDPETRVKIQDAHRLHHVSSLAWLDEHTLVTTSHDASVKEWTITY
Method: The drug affinity responsive target stability (DARTS) method was performed following a previously described procedure.[32] In brief, cells were collected and lysed with M-PER lysis buffer (catalog 78501, Thermo Fisher Scientific) containing complete protease inhibitor (catalog 04693124001, Roche) and phosphatase inhibitors (catalog 04906845001, Roche). Then, the lysis buffer was supplemented with TNC buffer. The lysates were aliquoted into 1.5 mL tubes and incubated with DMSO or different concentrations of GA-amide for 1 h at room temperature. After incubation, the lysates were digested with 1 μg of pronase for every 300 μg of lysate for exactly 30 min. Then, protein loading buffer was added immediately, and the lysates were heated to stop proteolysis. Western blot analysis was performed for further analysis.

[1] = test system: WDR1 knockout T2-4 and T12-1 cells; test: Cell viability of WDR1 knockout PDCs; type: cell-based, human; settings: WDR1 knockout T2-4 and T12-1 versus sg-NC
Method: The data are representative of 3 wells, scale bar: 500 μm. j Statistical results of the recovery of invasion.
For cell transfection, we first inserted the full-length cDNA encoding WDR1 and the WDR1 sequence with mutation of the four interaction sites into pcDNA3.1. Then, 293T cells were transiently transfected with these plasmids using Lipofectamine 3000 (Invitrogen). For cell transduction, WDR1 knockout and WDR1-overexpressing PDCs were generated by lentiviral transduction and selected by 1 µg/mL puromycin. All sg-WDR1 sequences are listed as follows: sg-WDR1 #2: 5′-[…]-3′, sg-WDR1 #3: 5′-[…]-3′, sg-WDR1 #4: 5′-[…]-3′, sg-WDR1 #5: 5′-[…]-3′. For cell transduction, CFL1 or MYH9 knockdown PDCs were generated by lentiviral transduction and selected by 1 µg/mL puromycin. All shRNA sequences are listed as follows: shCFL1-1: […], shCFL1-2: […], shMYH9-1: GCAAACCTCGAGAAGGCAA, shMYH9-2: GAAGTCAGCTCCCTAAAGA.

## CC(C)=CCC[C@]1(C)C=Cc2c(O)c3c(c(CC=C(C)C)c2O1)O[C@]12C(=C[C@@H]4CC1C(C)(C)O[C@@]2(C/C=C(/C)C(N)=O)C4=O)C3=O [GA-amide, gambogic amide]
WDR1
  WDR1 stabilization against pronase digestion: significantly promoted WDR1 stabilization during pronase-induced degradation
[1]
  suppression of cell proliferation in WDR1 knockout cells: decreased suppressive effects of GA-amide on cell proliferation
